Molecular target: hSTING (Homo sapiens, UniProt Q86WV6)
Assay: STING reporter assay in THP1-Dual KO-IFNAR2 cells (2′3′cGAMP stimulation, luciferase reporter)
Assay type: cell-based
Conditions: 15 μM 2′3′cGAMP, 24 h, luciferase reporter activity
Protocol: STING pathway activation by the compounds described herein was measured using THP1-Dual™ cells (KO-IFNAR2).
THP1-Dual™ KO-IFNAR2 Cells (obtained from invivogen) were maintained in RPMI, 10% FCS, 5 ml P/S, 2 mM L-glut, 10 mM Hepes, and 1 mM sodium pyruvate. Compounds were spotted in empty 384 well tissue culture plates (Greiner 781182) by Echo for a final concentration of 0.0017-100 μM. Cells were plated into the TC plates at 40 μL per well, 2×10E6 cells/mL. For activation with STING ligand, 2′3′cGAMP (MW 718.38, obtained from Invivogen), was prepared in Optimem media.
The following solutions were prepared for each 1×384 plate: • Solution A: 2 mL Optimem with one of the following stimuli: • 60 μL of 10 mM 2′3′cGAMP→150 μM stock • Solution B: 2 mL Optimem with 60 μL Lipofectamine 2000→Incubate 5 min at RT
2 mL of solution A and 2 ml Solution B was mixed and incubated for 20 min at room temperature (RT). 20 μL of transfection solution (A+B) was added on top of the plated cells, with a final 2′3′cGAMP concentration of 15 μM. The plates were then centrifuged immediately at 340 g for 1 minute, after which they were incubated at 37° C., 5% CO2, >98% humidity for 24 h. Luciferase reporter activity was then measured. EC50 values were calculated by using standard methods known in the art.
Luciferase reporter assay: 10 μL of supernatant from the assay was transferred to white 384-plate with flat bottom and squared wells. One pouch of QUANTI-Luc™ Plus was dissolved in 25 mL of water. 100 μL of QLC Stabilizer per 25 mL of QUANTI-Luc™ Plus solution was added. 50 μL of QUANTI-Luc™ Plus/QLC solution per well was then added. Luminescence was measured on a Platereader (e.g., Spectramax I3X (Molecular Devices GF3637001)).
Luciferase reporter activity was then measured. EC50 values were calculated by using standard methods known in the art.

Sequence of hSTING (Q86WV6 whole entry R71H/G230A/H232R/R293Q, form open): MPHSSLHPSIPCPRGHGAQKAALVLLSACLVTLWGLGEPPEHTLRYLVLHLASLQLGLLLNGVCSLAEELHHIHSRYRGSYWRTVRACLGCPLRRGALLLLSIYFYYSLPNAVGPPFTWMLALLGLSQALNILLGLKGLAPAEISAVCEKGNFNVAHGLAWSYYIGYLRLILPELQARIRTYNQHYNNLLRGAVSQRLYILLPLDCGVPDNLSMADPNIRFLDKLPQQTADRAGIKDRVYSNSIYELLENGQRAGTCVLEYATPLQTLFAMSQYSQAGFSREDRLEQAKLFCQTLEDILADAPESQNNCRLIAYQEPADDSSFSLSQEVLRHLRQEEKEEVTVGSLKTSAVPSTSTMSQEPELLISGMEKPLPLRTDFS

SMILES: CNC(=O)Nc1c[nH]c2ccc(-c3ccnc(N4CCCCC4)c3)cc12 [Compound 117, 3-methyl-1-{5-[2-(piperidin-1-yl)pyridin-4-yl]-1H-indol-3-yl}urea]
- EC50: 5000 to 100000 nM

SMILES: O=C(NCC1CC1)Nc1c[nH]c2ccc(-c3cnn(-c4ccc(C(F)(F)F)cc4)c3)cc12 [Compound 109, 1-(cyclopropylmethyl)-3-(5-(1-(4-(trifluoromethyl)phenyl)-1H-pyrazol-4-yl)-1H-indol-3-yl)urea]
- EC50: 200 to 1000 nM

SMILES: CNC(=O)Nc1c[nH]c2ccc(-c3cnn(-c4cccc(C#N)c4)c3)cc12 [Compound 116, 1-{5-[1-(3-cyanophenyl)-1H-pyrazol-4-yl]-1H-indol-3-yl}-3-methylurea]
- EC50: 5000 to 100000 nM

SMILES: CCc1ccc(-n2cc(-c3ccc4[nH]cc(NC(=O)N5CCCC5)c4c3)cn2)cc1 [Compound 112, N-(5-(1-(4-ethylphenyl)-1H-pyrazol-4-yl)-1H-indol-3-yl)pyrrolidine-1-carboxamide]
- EC50: 200 to 1000 nM

SMILES: O=C(NCC1CC1)Nc1c[nH]c2ccc(-c3cnn(Cc4ccc(C(F)(F)F)cc4)c3)cc12 [Compound 103, 1-(cyclopropylmethyl)-3-(5-(1-(4-(trifluoromethyl)benzyl)-1H-pyrazol-4-yl)-1H-indol-3-yl)urea]
- EC50: 200 to 1000 nM

SMILES: CCc1ccc(-n2cc(-c3ccc4[nH]cc(NC(=O)NCC(F)(F)F)c4c3)cn2)cc1 [Compound 129, 1-{5-(1-(4-ethylphenyl)-1H-pyrazol-4-yl]-1H-indol-3-yl}-3-(2,2,2-trifluoroethyl)urea]
- EC50: 40 to 200 nM

SMILES: CC(=O)N1CCC(NC(=O)Nc2c[nH]c3ccc(-c4cnn(-c5ccc(C(F)(F)F)cc5)c4)cc23)C1 (centres unmarked) [Compound 101, 1-(1-acetylpyrrolidin-3-yl)-3-(5-(1-(4-(trifluoromethyl)phenyl)-1H-pyrazol-4-yl)-1H-indol-3-yl)urea]
- EC50: 1000 to 5000 nM

SMILES: CCc1ccc(-n2cc(-c3ccc4[nH]cc(NC(=O)NCCC(F)(F)F)c4c3)cn2)cc1 [Compound 114, 1-(5-(1-(4-ethylphenyl)-1H-pyrazol-4-yl)-1H-indol-3-yl)-3-(3,3,3-trifluoropropyl)urea]
- EC50: 40 to 200 nM

SMILES: CCc1ccc(-n2cc(-c3ccc4[nH]cc(NC(=O)NCC5CCCC5)c4c3)cn2)cc1 [Compound 111, 1-(cyclopentylmethyl)-3-{5-[1-(4-ethylphenyl)-1H-pyrazol-4-yl]-1H-indol-3-yl}urea]
- EC50: 200 to 1000 nM

SMILES: O=C(NCC(F)(F)F)Nc1c[nH]c2ccc(-c3cnn(-c4ccc(C(F)(F)F)cc4)c3)cc12 [Compound 104, 1-(2,2,2-trifluoroethyl)-3-(5-(1-(4-(trifluoromethyl)phenyl)-1H-pyrazol-4-yl)-1H-indol-3-yl)urea]
- EC50: 200 to 1000 nM

SMILES: CCc1ccc(-n2cc(-c3ccc4[nH]cc(NC(=O)NC5CCOC5)c4c3)cn2)cc1 (centres unmarked) [Compound 124, 1-(5-(1-(4-ethylphenyl)-1H-pyrazol-4-yl)-1H-indol-3-yl)-3-(tetrahydrofuran-3-yl)urea]
- EC50: 200 to 1000 nM

SMILES: CCc1ccc(-n2cc(-c3ccc4[nH]cc(NC(=O)N[C@H]5C[C@H](OC)C5)c4c3)cn2)cc1 [Compound 125, 1-(5-(1-(4-ethylphenyl)-1H-pyrazol-4-yl)-1H-indol-3-yl)-3-((1r,3r)-3-methoxycyclobutyl)urea]
- EC50: 200 to 1000 nM

SMILES: CCc1ccc(-n2cc(-c3ccc4[nH]cc(NC(=O)N(C)C)c4c3)cn2)cc1 [Compound 119, 3-(5-(1-(4-ethylphenyl)-1H-pyrazol-4-yl)-1H-indol-3-yl)-1,1-dimethylurea]
- EC50: 200 to 1000 nM

SMILES: CNC(=O)Nc1c[nH]c2ccc(-c3cnn(Cc4ccc(C(F)(F)F)cc4)c3)cc12 [Compound 105, 1-methyl-3-(5-(1-(4-(trifluoromethyl)benzyl)-1H-pyrazol-4-yl)-1H-indol-3-yl)urea]
- EC50: 200 to 1000 nM

SMILES: CCc1ccc(-n2cc(-c3ccc4[nH]cc(NC(=O)NC(C)C)c4c3)cn2)cc1 [Compound 130, 1-(5-(1-(4-ethylphenyl)-1H-pyrazol-4-yl)-1H-indol-3-yl)-3-isopropylurea]
- EC50: 200 to 1000 nM

SMILES: CCc1ccc(-n2cc(-c3ccc4[nH]cc(NC(=O)NC5CCC5)c4c3)cn2)cc1 [Compound 126, 1-cyclobutyl-3-(5-(1-(4-ethylphenyl)-1H-pyrazol-4-yl)-1H-indol-3-yl)urea]
- EC50: 200 to 1000 nM

SMILES: CC(C)(O)CNC(=O)Nc1c[nH]c2ccc(-c3cnn(-c4ccc(C(F)(F)F)cc4)c3)cc12 [Compound 102, 1-(2-hydroxy-2-methylpropyl)-3-(5-(1-(4-(trifluoromethyl)phenyl)-1H-pyrazol-4-yl)-1H-indol-3-yl)urea]
- EC50: 200 to 1000 nM

SMILES: O=C(NCC(F)(F)F)Nc1c[nH]c2ccc(-c3cnn(-c4ccc(C(F)(F)F)cn4)c3)cc12 [Compound 107, 1-(2,2,2-trifluoroethyl)-3-(5-(1-(5-(trifluoromethyl)pyridin-2-yl)-1H-pyrazol-4-yl)-1H-indol-3-yl)urea]
- EC50: 200 to 1000 nM

SMILES: CNC(=O)Nc1c[nH]c2ccc(-c3cnn(-c4ccccc4)c3)cc12 [Compound 131, 3-methyl-1-[5-(1-phenyl-1H-pyrazol-4-yl)-1H-indol-3-yl]urea]
- EC50: 1000 to 5000 nM

SMILES: CCc1ccc(-n2cc(-c3ccc4[nH]cc(NC(=O)NC)c4c3)cn2)cc1 [Compound 132, 1-(5-(1-(4-ethylphenyl)-1H-pyrazol-4-yl)-1H-indol-3-yl)-3-methylurea]
- EC50: 200 to 1000 nM

SMILES: CCc1ccc(-n2cc(-c3ccc4[nH]cc(NC(=O)NCC(F)F)c4c3)cn2)cc1 [Compound 127, 1-(2,2-difluoroethyl)-3-(5-(1-(4-ethylphenyl)-1H-pyrazol-4-yl)-1H-indol-3-yl)urea]
- EC50: 200 to 1000 nM

SMILES: CCc1ccc(-n2cc(-c3ccc4[nH]cc(NC(=O)NC5CCCC5)c4c3)cn2)cc1 [Compound 120, 1-cyclopentyl-3-(5-(1-(4-ethylphenyl)-1H-pyrazol-4-yl)-1H-indol-3-yl)urea]
- EC50: 200 to 1000 nM

SMILES: CNC(=O)Nc1c[nH]c2ccc(-c3cnn(C4CCCC4)c3)cc12 [Compound 123, 1-[5-(1-cyclopentyl-1H-pyrazol-4-yl)-1H-indol-3-yl]-3-methylurea]
- EC50: 5000 to 100000 nM

SMILES: CNC(=O)Nc1c[nH]c2ccc(-c3cnn(-c4cccc(Cl)c4)c3)cc12 [Compound 113, 1-{5-[1-(3-chlorophenyl)-1H-pyrazol-4-yl]-1H-indol-3-yl}-3-methylurea]
- EC50: 200 to 1000 nM

SMILES: CCc1ccc(-n2cc(-c3ccc4[nH]cc(NC(=O)N5CCN(C(C)=O)CC5)c4c3)cn2)cc1 [Compound 108, 4-acetyl-N-{5-[1-(4-ethylphenyl)-1H-pyrazol-4-yl]-1H-indol-3-yl}piperazine-1-carboxamide]
- EC50: 1000 to 5000 nM

SMILES: O=C(NCC1CC1)Nc1c[nH]c2ccc(-c3cnn(-c4ccc(C(F)(F)F)cn4)c3)cc12 [Compound 106, 1-(cyclopropylmethyl)-3-(5-(1-(5-(trifluoromethyl)pyridin-2-yl)-1H-pyrazol-4-yl)-1H-indol-3-yl)urea]
- EC50: 200 to 1000 nM

SMILES: CNC(=O)Nc1c[nH]c2ccc(-c3ccc(C4(C#N)CC4)cc3)cc12 [Compound 121, 1-{5-[4-(1-cyanocyclopropyl)phenyl]-1H-indol-3-yl}-3-methylurea]
- EC50: 5000 to 100000 nM

SMILES: CCc1ccc(-n2cc(-c3ccc4[nH]cc(NC(=O)NCCOC)c4c3)cn2)cc1 [Compound 110, 1-(5-(1-(4-ethylphenyl)-1H-pyrazol-4-yl)-1H-indol-3-yl)-3-(2-methoxyethyl) urea]
- EC50: 200 to 1000 nM

SMILES: CNC(=O)Nc1c[nH]c2ccc(-c3cnn(-c4ccc(C(F)(F)F)cc4)c3)cc12 [Compound 118, 1-methyl-3-(5-(1-(4-(trifluoromethyl)phenyl)-1H-pyrazol-4-yl)-1H-indol-3-yl)urea]
- EC50: 200 to 1000 nM

SMILES: CCc1ccc(-n2cc(-c3ccc4[nH]cc(NC(=O)NCC5CC5)c4c3)cn2)cc1 [Compound 128, 1-(cyclopropylmethyl)-3-(5-(1-(4-ethylphenyl)-1H-pyrazol-4-yl)-1H-indol-3-yl)urea]
- EC50: 200 to 1000 nM

SMILES: CNC(=O)Nc1c[nH]c2ccc(-c3cnn(-c4ccccc4Cl)c3)cc12 [Compound 115, 1-{5-[1-(2-chlorophenyl)-1H-pyrazol-4-yl]-1H-indol-3-yl}-3-methylurea]
- EC50: 1000 to 5000 nM

SMILES: CNC(=O)Nc1c[nH]c2ccc(-c3cccc(C4CC4)c3)cc12 [Compound 122, 1-[5-(3-cyclopropylphenyl)-1H-indol-3-yl]-3-methylurea]
- EC50: 1000 to 5000 nM
